Two compounds from the NIST ThermoML archive (doi:10.1016/j.tca.2015.01.003) can be followed below.

SMILES strings stand for the structures. Numbers after ± are expanded uncertainties.

This data set in a line: wn = mass fraction of the nth substance listed. To be noted: 288.15 K, 100 kPa, Liquid, Vibrating tube method.

Take `O=S(=O)([O-])[O-].[Li+].[Li+]` [lithium sulfate] + O: the mass density (usually the mass of a sample divided by its volume) (w1 = 0.2601) is recorded as 1237.48 ± 1.6 kg/m3. As to `O=S(=O)([O-])[O-].[K+].[K+]` [potassium sulfate] + O, the mass density (w1 = 0.0924) amounted to 1077.03 ± 1.2 kg/m3.
